Reference: patent US10975075B2, “Imidazolonylquinolines and the use thereof as ATM kinase inhibitors” (priority 2015, dated 2021)
pIC50: −log10 of the molar value.

System: phosphorylation of CHK2 (phospho-Thr68) in HCT116 cells
Test: Cellular pCHK2 assay (bleomycin-induced phosphorylation of CHK2 phospho-Thr68, immunofluorescence high content)
Assay type: cell-based, human
Details: 10 μM bleomycin, 4 h
From the text: For the identification of substances which inhibit the phosphorylation of the protein kinase CHK2 at the amino acid threonine 68, an immunofluorescence-based “high content” analysis assay was used in HCT116 cells.
In vitro cell-based immunofluorescence assay for the identification of inhibitors of bleomycin-induced phosphorylation of CHK2 (phospho-Thr68) in the human colon carcinoma cell line HCT116:
HCT116 cells are sown out in a defined cell density in 384-well plates in culture medium (DMEM high glucose, 2 mM GlutaMax, 1 mM Na pyruvate, 10% FCS) and incubated overnight at 37° C. and 10% of CO2. On the following day, the test substances are added in a defined concentration range (1 nM to 30 μM) in combination with 10 μM bleomycin, where the concentration of the solvent DMSO is kept constant at 0.5%. […] Parallel staining of DNA with propidium iodide enables determination of the cell count. The pCHK2 signal is detected using a high-content imager (Molecular Devices IMX Ultra) and automatic image analysis using the MetaXpress software belonging to the instrument. The number of cell nuclei which have a pCHK2 signal above a defined background is determined.

COc1cc2ncc3c(c2cc1-c1cnn(C)c1)n(-c1cnn(C)c1)c(=O)n3C [Compound Example 23, 7-Methoxy-3-methyl-1,8-bis-(1-methyl-1H-pyrazol-4-yl)-1,3-dihydroimidazo[4,5-c] quinolin-2-one]
pIC50: > 6.70

COc1cc2ncc3c(c2cc1-c1cn[nH]c1)n(-c1ccncc1C)c(=O)n3C [Compound Example 19, 7-Methoxy-3-methyl-1-(3-methylpyridin-4-yl)-8-(1 H-pyrazol-4-yl)-1,3-dihydro-imidazo[4,5-c]quinolin-2-one]
pIC50: > 6.70

COc1cc2ncc3c(c2cc1-c1cnn(C)c1)n(-c1c(C)n[nH]c1C)c(=O)n3C [Example 118, 1-(3,5-Dimethyl-1H-pyrazol-4-yl)-7-methoxy-3-methyl-8-(1-methyl-1H-pyrazol-4-yl)-1,3-dihydroimidazo[4,5-c]-quinolin-2-one]
pIC50: 6.00 to 6.70
